Measured values reported in patent US20220009920A1 (GB005, Inc., priority 2020, published 2022).

Tests used:
Assay in all cases: Large panel kinase profiling
Assay type in all cases: biochemical
Details in all cases: 1 μM test article, 1 mM ATP
INSRR = INSRR (Homo sapiens, UniProt P14616)
Summary of the method: (§1)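 Steps: combine kinase, CSox-Sensor substrate, 1 mM ATP and 1 μM compound; seal and incubate at 30° C.; read top fluorescence kinetically each minute, Ex 360 nm/Em 485 nm.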

MAPK15/ERK7 = target: T1, MAPK15/ERK7 (Homo sapiens, UniProt Q8TD08)
T1 construct: AssayQuant Technologies, Inc. (service provider)
T1 sequence (Q8TD08 1-544): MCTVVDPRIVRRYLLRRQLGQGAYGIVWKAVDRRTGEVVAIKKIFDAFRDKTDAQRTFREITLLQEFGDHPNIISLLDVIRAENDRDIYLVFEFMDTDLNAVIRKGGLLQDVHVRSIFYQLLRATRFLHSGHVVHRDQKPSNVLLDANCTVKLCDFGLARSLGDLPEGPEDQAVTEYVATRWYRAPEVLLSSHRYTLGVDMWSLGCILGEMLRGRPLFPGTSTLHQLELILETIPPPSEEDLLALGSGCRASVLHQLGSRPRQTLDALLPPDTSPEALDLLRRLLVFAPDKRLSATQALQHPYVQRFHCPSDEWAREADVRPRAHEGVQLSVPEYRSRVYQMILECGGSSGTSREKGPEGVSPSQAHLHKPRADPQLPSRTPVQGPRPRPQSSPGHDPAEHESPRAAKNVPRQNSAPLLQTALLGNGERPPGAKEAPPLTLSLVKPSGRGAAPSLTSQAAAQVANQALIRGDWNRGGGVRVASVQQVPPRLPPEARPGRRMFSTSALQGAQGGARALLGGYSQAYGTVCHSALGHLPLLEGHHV
Summary of the method: as §1

PRKCH/PKCH = PRKCH/PKCH (Homo sapiens, UniProt P24723)
Chain of PRKCH/PKCH (P24723 whole entry): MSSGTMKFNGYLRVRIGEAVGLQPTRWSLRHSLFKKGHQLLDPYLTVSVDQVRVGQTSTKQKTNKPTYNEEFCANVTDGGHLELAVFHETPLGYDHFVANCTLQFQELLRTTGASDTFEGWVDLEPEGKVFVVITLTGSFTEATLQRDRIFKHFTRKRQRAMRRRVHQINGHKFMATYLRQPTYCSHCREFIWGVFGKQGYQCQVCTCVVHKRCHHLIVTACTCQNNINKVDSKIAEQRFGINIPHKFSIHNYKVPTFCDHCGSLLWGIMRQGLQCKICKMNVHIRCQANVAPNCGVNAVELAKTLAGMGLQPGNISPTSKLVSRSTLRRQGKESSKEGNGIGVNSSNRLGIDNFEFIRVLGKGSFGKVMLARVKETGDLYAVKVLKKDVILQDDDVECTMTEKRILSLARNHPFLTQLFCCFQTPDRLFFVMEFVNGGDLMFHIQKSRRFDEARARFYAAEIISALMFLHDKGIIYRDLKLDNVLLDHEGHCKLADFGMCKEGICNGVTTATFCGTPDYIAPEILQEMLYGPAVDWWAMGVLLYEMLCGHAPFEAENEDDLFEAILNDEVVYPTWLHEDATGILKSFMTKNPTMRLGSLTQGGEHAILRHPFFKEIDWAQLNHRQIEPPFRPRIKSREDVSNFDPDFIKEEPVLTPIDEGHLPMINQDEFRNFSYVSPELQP
Summary of the method: as §1

GRK2 = target: T2, GRK2 (Homo sapiens, UniProt P25098)
T2 construct: AssayQuant Technologies, Inc. (service provider)
T2 sequence (P25098 1-689): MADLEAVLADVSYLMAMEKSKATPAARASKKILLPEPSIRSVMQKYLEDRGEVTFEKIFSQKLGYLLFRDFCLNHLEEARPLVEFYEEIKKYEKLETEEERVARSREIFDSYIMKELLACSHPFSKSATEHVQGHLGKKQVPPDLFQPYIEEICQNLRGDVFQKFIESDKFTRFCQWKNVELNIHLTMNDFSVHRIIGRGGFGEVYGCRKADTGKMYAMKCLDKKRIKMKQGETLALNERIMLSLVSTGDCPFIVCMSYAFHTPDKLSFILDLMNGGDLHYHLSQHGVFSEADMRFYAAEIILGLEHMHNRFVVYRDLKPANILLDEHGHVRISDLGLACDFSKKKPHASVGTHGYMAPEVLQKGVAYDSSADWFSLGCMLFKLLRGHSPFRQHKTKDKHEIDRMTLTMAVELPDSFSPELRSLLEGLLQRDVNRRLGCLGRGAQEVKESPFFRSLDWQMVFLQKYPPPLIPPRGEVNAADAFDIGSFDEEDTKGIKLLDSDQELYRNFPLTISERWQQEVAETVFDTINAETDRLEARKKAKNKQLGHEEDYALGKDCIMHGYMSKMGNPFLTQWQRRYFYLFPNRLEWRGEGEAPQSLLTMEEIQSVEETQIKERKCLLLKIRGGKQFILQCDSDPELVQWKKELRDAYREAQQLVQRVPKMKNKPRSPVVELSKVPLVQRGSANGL
Summary of the method: as §1

BUB1 = BUB1 (Homo sapiens, UniProt O43683)
Chain of BUB1 (O43683 whole entry): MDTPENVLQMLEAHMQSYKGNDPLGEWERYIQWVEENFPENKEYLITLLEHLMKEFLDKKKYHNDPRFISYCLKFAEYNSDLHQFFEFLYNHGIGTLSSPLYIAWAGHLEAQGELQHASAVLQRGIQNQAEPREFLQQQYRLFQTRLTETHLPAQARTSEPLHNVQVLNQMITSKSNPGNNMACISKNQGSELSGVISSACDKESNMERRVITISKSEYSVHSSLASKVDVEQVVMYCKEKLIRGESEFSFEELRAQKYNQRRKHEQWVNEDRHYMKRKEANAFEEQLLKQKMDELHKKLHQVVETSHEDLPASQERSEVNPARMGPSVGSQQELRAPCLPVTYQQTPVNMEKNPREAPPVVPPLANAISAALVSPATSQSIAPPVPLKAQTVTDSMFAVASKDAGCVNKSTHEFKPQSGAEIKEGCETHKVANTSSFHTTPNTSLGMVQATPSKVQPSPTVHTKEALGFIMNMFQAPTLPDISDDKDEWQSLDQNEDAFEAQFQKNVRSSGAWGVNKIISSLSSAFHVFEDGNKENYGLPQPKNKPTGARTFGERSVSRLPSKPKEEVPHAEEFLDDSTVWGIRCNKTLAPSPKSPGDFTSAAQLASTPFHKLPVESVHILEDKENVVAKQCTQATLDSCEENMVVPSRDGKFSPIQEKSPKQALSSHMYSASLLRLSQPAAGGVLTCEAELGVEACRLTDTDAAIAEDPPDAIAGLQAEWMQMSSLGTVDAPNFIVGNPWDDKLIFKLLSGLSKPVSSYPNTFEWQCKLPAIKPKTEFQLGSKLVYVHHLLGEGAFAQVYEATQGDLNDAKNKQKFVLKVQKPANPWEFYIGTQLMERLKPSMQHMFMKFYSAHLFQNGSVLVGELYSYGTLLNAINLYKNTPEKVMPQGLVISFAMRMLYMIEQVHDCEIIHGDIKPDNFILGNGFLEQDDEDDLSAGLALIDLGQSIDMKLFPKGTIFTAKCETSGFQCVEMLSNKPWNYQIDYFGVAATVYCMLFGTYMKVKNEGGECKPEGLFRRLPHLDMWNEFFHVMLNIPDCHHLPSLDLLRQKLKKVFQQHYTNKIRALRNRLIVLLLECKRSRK
Summary of the method: as §1

PRKCB1/PKCB1 = PRKCB1/PKCB1 (Homo sapiens, UniProt P05771)
Chain of PRKCB1/PKCB1 (P05771 whole entry): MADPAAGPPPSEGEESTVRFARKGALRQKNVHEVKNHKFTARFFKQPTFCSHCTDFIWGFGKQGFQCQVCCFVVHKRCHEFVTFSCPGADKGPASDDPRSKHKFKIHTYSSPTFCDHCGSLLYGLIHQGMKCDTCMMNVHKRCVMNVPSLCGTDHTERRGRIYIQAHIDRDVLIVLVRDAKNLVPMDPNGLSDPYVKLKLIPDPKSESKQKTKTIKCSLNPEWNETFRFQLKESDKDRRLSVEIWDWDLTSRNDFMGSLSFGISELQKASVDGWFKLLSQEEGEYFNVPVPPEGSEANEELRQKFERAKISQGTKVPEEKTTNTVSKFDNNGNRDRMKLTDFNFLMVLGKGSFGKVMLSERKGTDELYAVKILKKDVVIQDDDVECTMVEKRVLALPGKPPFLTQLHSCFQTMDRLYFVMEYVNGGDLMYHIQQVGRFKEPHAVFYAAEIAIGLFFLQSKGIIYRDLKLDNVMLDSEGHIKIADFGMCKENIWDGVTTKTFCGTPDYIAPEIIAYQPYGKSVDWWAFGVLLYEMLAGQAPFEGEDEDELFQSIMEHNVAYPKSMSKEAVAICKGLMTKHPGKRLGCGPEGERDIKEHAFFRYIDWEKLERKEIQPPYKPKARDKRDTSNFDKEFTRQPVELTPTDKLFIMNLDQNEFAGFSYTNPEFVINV
Summary of the method: as §1

MERTK/MER = target: T3, MERTK/MER (Homo sapiens, UniProt Q12866)
T3 construct: AssayQuant Technologies, Inc. (assay service)
T3 sequence (Q12866 21-999): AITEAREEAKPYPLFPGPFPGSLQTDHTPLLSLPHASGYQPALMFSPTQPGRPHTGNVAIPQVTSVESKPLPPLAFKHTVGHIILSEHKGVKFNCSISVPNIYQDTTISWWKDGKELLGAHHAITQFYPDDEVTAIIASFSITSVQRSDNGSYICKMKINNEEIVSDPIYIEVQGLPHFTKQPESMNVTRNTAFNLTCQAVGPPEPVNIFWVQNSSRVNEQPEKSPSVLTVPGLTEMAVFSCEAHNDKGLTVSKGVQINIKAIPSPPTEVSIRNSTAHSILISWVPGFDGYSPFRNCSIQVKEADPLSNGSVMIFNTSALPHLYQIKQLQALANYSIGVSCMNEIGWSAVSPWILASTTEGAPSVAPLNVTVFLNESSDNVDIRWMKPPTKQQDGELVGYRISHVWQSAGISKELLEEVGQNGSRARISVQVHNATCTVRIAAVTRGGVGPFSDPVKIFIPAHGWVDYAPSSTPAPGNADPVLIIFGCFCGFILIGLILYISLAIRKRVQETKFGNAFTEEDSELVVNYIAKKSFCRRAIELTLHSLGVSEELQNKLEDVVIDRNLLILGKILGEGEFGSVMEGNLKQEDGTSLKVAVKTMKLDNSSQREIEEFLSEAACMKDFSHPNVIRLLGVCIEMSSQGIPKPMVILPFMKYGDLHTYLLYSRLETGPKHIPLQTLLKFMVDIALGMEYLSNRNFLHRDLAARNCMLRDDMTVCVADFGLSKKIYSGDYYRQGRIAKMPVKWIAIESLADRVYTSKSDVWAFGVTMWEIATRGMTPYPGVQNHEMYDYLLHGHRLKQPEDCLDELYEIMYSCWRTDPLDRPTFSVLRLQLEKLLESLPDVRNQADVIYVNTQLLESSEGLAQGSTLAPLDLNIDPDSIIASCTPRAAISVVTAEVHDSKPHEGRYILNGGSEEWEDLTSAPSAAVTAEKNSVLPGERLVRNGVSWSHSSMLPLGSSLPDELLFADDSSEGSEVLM
Summary of the method: as §1

Chain of INSRR (P14616 27-1297, species assumed): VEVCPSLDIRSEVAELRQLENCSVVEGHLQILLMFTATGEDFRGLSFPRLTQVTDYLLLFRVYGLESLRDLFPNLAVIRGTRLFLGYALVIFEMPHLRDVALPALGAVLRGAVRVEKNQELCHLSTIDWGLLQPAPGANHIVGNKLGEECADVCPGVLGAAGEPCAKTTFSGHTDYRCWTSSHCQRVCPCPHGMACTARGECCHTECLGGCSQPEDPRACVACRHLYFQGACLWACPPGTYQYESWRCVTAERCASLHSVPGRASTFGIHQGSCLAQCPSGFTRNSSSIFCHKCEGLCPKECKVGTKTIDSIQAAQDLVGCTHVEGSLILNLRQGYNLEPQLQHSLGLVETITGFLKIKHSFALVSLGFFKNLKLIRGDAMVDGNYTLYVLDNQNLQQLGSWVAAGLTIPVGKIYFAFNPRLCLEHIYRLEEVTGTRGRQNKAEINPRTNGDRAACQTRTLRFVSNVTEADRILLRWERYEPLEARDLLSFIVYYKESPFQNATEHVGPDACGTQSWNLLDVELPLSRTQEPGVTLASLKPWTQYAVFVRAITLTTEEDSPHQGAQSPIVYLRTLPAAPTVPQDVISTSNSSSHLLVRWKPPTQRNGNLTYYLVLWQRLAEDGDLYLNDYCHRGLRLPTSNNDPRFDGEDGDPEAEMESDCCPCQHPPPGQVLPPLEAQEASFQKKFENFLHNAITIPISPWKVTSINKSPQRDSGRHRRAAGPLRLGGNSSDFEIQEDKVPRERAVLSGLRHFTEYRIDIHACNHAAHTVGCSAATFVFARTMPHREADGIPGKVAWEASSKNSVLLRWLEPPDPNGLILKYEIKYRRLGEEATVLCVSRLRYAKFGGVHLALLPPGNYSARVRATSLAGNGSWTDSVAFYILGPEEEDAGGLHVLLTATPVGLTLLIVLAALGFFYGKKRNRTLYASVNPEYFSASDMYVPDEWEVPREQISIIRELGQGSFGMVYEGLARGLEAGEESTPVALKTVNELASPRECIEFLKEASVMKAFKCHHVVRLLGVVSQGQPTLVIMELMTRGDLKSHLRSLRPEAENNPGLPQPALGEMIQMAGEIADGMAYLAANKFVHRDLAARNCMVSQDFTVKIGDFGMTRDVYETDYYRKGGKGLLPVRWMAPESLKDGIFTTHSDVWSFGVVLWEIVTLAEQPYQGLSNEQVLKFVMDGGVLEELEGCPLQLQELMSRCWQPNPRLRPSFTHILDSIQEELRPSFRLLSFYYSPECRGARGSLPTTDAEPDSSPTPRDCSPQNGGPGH

SMILES: C=CC(=O)N1CCCC(c2c(F)cc(C(N)=O)c3[nH]c4c(c23)CCCCC4)C1 (single isomer, unassigned) [Compound 5-6]
- inhibition at 1 µM (INSRR): 10.7%
- inhibition at 1 µM (MAPK15/ERK7): -3.4%
- inhibition at 1 µM (PRKCH/PKCH): -3.6%
- inhibition at 1 µM (GRK2): -14.8%
- inhibition at 1 µM (BUB1): 8.2%
- inhibition at 1 µM (PRKCB1/PKCB1): 8.6%
- inhibition at 1 µM (MERTK/MER): -0.8%

SMILES: C=CC(=O)N1CCC[C@@H](c2c(F)cc(C(N)=O)c3[nH]c4c(c23)CC2(CC4)CC2)C1 [Compound 6-2, (S)-5-(1-acryloylpiperidin-3-yl)-6-fluoro-1,2,4,9-tetrahydrospiro[carbazole-3,1′-cyclopropane]-8-carboxamide]
- inhibition at 1 µM (INSRR): -54.1%
- inhibition at 1 µM (MAPK15/ERK7): 15.3%
- inhibition at 1 µM (PRKCH/PKCH): 5.3%
- inhibition at 1 µM (GRK2): -10.5%
- inhibition at 1 µM (BUB1): -11.5%
- inhibition at 1 µM (PRKCB1/PKCB1): 8.9%
- inhibition at 1 µM (MERTK/MER): 12.4%

SMILES: C=CC(=O)N1CCC[C@@H](c2c(F)cc(C(N)=O)c3[nH]c4c(c23)CCC4)C1 [Compound 10-2, (S)-8-(1-acryloylpiperidin-3-yl)-7-fluoro-1,2,3,4-tetrahydrocyclo-penta[b]indole-5-carboxamide]
- inhibition at 1 µM (INSRR): -5.7%
- inhibition at 1 µM (MAPK15/ERK7): -2%
- inhibition at 1 µM (PRKCH/PKCH): -7.9%
- inhibition at 1 µM (GRK2): -1.6%
- inhibition at 1 µM (BUB1): -2.3%
- inhibition at 1 µM (PRKCB1/PKCB1): -9.4%
- inhibition at 1 µM (MERTK/MER): 14.8%
